Measured values reported in patent US20110053773A1, “METHODS OF IMPROVING NUTRITIONAL VALUE OF PLANTS” (UNIVERSITY OF TENNESSEE RESEARCH FOUNDATION, priority 2009, published 2011).

Legend:
Assay type in all cases: in vivo
[1] = tested on: sweet corn variety WH0809; test: Sweet corn yield, harvested and weighed in the husk (Example 2); conditions: treated check 9758.4
Method: (§1) A field study was conducted at Greenback, TN to investigate POST applications of several herbicide inhibitors of photosynthesis for sweet corn safety and for changes in carbohydrate content in the kernels of sweet corn among treatments. Treatments included bentazon at 1120 and 2240 g ai/ha, linuron at 280 and 560 g ai/ha, metribuzin at 105 and 210 g ai/ha, and bromoxynil at 560 and 1120 g ai/ha. All treatments included a PRE application of a common residual corn herbicide in order to maintain weed free conditions. […] Sweet corn was harvested from the center two rows of each four row plot and weighed in the husk. Eight ears of corn were harvested from each plot and were pooled over replicates for analysis of key carbohydrates which included the sugars sucrose, fructose, glucose, maltose, and raffanose.

[2] = tested on: sweet corn variety WH0809; test: Sugar content of sweet corn kernels (Example 2); conditions: for Sugar content Raffanose: treated check 0.51; for Sugar content Maltose: treated check 0.61; for Sugar content Fructose: treated check 1.04; for Sugar content Glucose: treated check 1.91; for Sugar content Sucrose: treated check 10.72
Method: as §1

[3] = tested on: sweet corn variety WH0809; test: Visual injury of sweet corn after POST herbicide inhibitors of photosynthesis (Example 2)
Method: as §1

CSc1nnc(C(C)(C)C)c(=O)n1N [METRIBUZIN, metribuzin]
YIELD ([1]; 105 g ai/ha + COC 1% v/v POST): 10715.4 kg | YIELD ([1]; 210 g ai/ha + COC 1% v/v POST): 8967.5 kg | Sugar content Raffanose ([2]; 105 g ai/ha + COC 1% v/v POST): 0.36 mg/g dw | Sugar content Maltose ([2]; 105 g ai/ha + COC 1% v/v POST): 0.49 mg/g dw | Sugar content Fructose ([2]; 105 g ai/ha + COC 1% v/v POST): 1.04 mg/g dw | Sugar content Glucose ([2]; 105 g ai/ha + COC 1% v/v POST): 1.79 mg/g dw | Sugar content Sucrose ([2]; 105 g ai/ha + COC 1% v/v POST): 9.35 mg/g dw | fructose increase compared to the untreated check ([2]; 210 g ai/ha): 115% | glucose increase compared to the untreated check ([2]; 210 g ai/ha): 106% | maltose increase compared to the untreated check ([2]; 210 g ai/ha): 74% | raffanose increase compared to the untreated check ([2]; 210 g ai/ha): 59% | sucrose increase compared to the untreated check ([2]; 210 g ai/ha): 103% | Sugar content Raffanose ([2]; 210 g ai/ha + COC 1% v/v POST): 0.81 mg/g dw | Sugar content Maltose ([2]; 210 g ai/ha + COC 1% v/v POST): 1.06 mg/g dw | Sugar content Fructose ([2]; 210 g ai/ha + COC 1% v/v POST): 2.24 mg/g dw | Sugar content Glucose ([2]; 210 g ai/ha + COC 1% v/v POST): 3.93 mg/g dw | Sugar content Sucrose ([2]; 210 g ai/ha + COC 1% v/v POST): 21.79 mg/g dw | Injury ([3]; 105 g ai/ha + COC 1% v/v POST, 1st of 3 Injury columns, rating date not given): 12% | Injury ([3]; 105 g ai/ha + COC 1% v/v POST, 2nd of 3 Injury columns (agrees with 14 DAT of b67)): 13% | Injury ([3]; 105 g ai/ha + COC 1% v/v POST, 3rd of 3 Injury columns, rating date not given): 5% | Injury ([3]; 210 g ai/ha + COC 1% v/v POST, 1st of 3 Injury columns, rating date not given): 17% | Injury ([3]; 210 g ai/ha + COC 1% v/v POST, 2nd of 3 Injury columns (agrees with 14 DAT of b67)): 30% | Injury ([3]; 210 g ai/ha + COC 1% v/v POST, 3rd of 3 Injury columns, rating date not given): 22%
